Test results as given in patent US20240208992A1, “MACROCYCLES AS CFTR MODULATORS” (Idorsia Pharmaceuticals Ltd, priority 2021, published 2024).

Target: human F508del-CFTR (Homo sapiens, UniProt P13569, DEL508-508)
Test: F508del-CFTR cell surface expression (corrector activity), DiscoveRx ß-galactosidase complementation chemiluminescence assay in recombinant U2OS cell line;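 further: U2OS cells co-expressing ProLink-tagged F508del-CFTR and a membrane-anchored enzyme acceptor, where more surface CFTR restores β-galactosidase activity measured by chemiluminescence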
Conditions: for EC50: EC50, F508del-CFTR cell surface expression; for Emax: U2OS
[1] = U2OS cells, 16h compound incubation, geomean values
[2] = in relation to Emax of corrector lumacaftor (=100%), arithmetic mean values
[3] = U2OS cells, 16h compound incubation, geomean of several measurements
[4] = in relation to the Emax of the corrector lumacaftor (=100%), U2OS cells, 16h compound incubation, arithmetic mean
[5] = U2OS cell line, 16h compound incubation, geomean values
[6] = in relation to the Emax of the corrector lumacaftor (=100%), U2OS cell line, 16h compound incubation, arithmetic mean values

Sequence of human F508del-CFTR (P13569 with tags, fused parts or gaps DEL508-508): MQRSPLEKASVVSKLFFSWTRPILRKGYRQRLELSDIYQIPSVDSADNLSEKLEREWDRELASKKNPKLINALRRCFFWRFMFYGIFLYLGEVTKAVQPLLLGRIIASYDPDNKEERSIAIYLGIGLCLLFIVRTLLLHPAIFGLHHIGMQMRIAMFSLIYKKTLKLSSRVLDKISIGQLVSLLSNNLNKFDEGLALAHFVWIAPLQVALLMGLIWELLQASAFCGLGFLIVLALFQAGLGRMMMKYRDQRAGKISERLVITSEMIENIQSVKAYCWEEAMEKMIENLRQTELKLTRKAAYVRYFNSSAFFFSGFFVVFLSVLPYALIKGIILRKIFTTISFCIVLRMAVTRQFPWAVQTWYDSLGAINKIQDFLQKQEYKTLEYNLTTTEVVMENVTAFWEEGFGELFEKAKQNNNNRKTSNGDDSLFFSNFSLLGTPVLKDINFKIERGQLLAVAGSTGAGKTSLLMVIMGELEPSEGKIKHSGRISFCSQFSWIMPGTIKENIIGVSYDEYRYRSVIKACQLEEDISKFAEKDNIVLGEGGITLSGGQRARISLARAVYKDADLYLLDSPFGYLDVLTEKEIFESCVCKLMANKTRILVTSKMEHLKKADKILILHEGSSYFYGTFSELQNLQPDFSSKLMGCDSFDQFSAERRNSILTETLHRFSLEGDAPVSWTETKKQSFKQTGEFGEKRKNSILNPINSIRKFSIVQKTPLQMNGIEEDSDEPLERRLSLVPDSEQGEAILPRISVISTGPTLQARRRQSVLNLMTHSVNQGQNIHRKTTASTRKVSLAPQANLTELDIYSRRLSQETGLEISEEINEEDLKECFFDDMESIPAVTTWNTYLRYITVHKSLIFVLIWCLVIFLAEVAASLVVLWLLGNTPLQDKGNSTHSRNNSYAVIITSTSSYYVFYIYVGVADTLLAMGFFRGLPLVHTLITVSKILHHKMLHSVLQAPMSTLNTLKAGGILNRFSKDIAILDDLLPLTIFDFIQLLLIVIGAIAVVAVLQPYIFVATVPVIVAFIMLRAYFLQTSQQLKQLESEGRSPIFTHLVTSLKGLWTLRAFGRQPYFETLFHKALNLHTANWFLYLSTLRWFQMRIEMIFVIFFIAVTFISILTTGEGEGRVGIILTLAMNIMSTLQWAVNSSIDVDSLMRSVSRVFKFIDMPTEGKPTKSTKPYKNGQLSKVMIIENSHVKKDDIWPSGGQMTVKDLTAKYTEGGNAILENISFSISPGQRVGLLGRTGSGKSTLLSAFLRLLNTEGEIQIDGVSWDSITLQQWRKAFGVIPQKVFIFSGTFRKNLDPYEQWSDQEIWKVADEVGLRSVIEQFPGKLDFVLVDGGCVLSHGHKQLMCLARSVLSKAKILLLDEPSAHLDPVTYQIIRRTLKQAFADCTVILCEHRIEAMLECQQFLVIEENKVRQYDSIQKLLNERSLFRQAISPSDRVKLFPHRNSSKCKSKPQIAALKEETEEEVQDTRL

SMILES	EC50 [1]	Emax [2]	EC50 [5]	Emax [6]	also measured
COc1cccc(CCNC(=O)[C@@H]2CC(=O)N(C)[C@@H](CC(C)C)C(=O)N3CCN(S(=O)(=O)c4ccc5oc(=O)[nH]c5c4)C[C@@H]3C(=O)N[C@H](Cc3ccccc3)COc3ccc4ccccc4c3C(=O)N2)c1 [Example 737, (4aR,7R,18S,22S)-7-benzyl-22-isobutyl-N-(3-methoxyphenethyl)-21-methyl-5,16,20,23-tetraoxo-3-((2-oxo-2,3-dihydrobenzo[d]oxazol-5-yl)sulfonyl)-2,3,4,4a,5,6,7,8,16,17,18,19,20,21,22,23-hexadecahydro-1H-naphtho[1,2-p]pyrazino[2,1-f][1]oxa[4,7,10,14]tetraazacycloheptadecine-18-carboxamide]	665 nM	298%			
COc1nc(C)cc2c1C(=O)N[C@H](C(=O)NCCn1nc3ccccc3n1)CC(=O)N(C)[C@@H](CC(C)C)C(=O)N(C)[C@H](Cc1nc(C(F)(F)F)no1)C(=O)N[C@H](Cc1ccccc1)CO2 [Example 903, (3R,6R,9S,13S)-N-(2-(2H-benzo[d][1,2,3]triazol-2-yl)ethyl)-3-benzyl-9-isobutyl-16-methoxy-7,10,18-trimethyl-5,8,11,15-tetraoxo-6-((3-(trifluoromethyl)-1,2,4-oxadiazol-5-yl)methyl)-2,3,4,5,6,7,8,9,10,11,12,13,14,15-tetradecahydropyrido[3,4-p][1]oxa[4,7,10,14]tetraazacycloheptadecine-13-carboxamide]					EC50 [3]: 51 nM; Emax [4]: 414%
Cc1cc2c3c(ccc2cn1)OC[C@@H](Cc1ccccc1)NC(=O)[C@@H](C)N(C)C(=O)[C@H](CC(C)C)N(C)C(=O)C[C@@H](C(=O)NCCc1nc(C2CC2)no1)NC3=O [Example 826, (3S,7S,10R,13R)-13-benzyl-N-(2-(3-cyclopropyl-1,2,4-oxadiazol-5-yl)ethyl)-7-isobutyl-6,9,10,20-tetramethyl-1,5,8,11-tetraoxo-1,2,3,4,5,6,7,8,9,10,11,12,13,14-tetradecahydro-[1]oxa[4,7,10,14]tetraazacycloheptadecino[16,17-f]isoquinoline-3-carboxamide]					EC50 [3]: 283 nM; Emax [4]: 340%
COc1cccc(CCNC(=O)[C@@H]2CC(=O)N(C)[C@@H](CC(C)C)C(=O)N3CCN(S(=O)(=O)c4ccccn4)C[C@@H]3C(=O)N[C@H](Cc3ccccc3)COc3ccc4ccccc4c3C(=O)N2)c1 [Example 747, (4aR,7R,18S,22S)-7-benzyl-22-isobutyl-N-(3-methoxyphenethyl)-21-methyl-5,16,20,23-tetraoxo-3-(pyridin-2-ylsulfonyl)-2,3,4,4a,5,6,7,8,16,17,18,19,20,21,22,23-hexadecahydro-1H-naphtho[1,2-p]pyrazino[2,1-f][1]oxa[4,7,10,14]tetraazacycloheptadecine-18-carboxamide]	234 nM	213%			
COc1cc2c(cc1OC)C(=O)N[C@H](C(=O)NCCc1ccc3c(c1)CCCO3)CC(=O)N(C)[C@@H](CC(C)C)C(=O)N(C)CC(=O)N[C@H](Cc1ccccc1)CO2 [Example 3, (3R,9S,13S)-3-benzyl-N-(2-(chroman-6-yl)ethyl)-9-isobutyl-17,18-dimethoxy-7,10-dimethyl-5,8,11,15-tetraoxo-2,3,4,5,6,7,8,9,10,11,12,13,14,15-tetradecahydrobenzo[p][1]oxa[4,7,10,14]tetraazacycloheptadecine-13-carboxamide]			816 nM	151%	
CC(C)C[C@H]1C(=O)N(CCC2CCOCC2)CC(=O)N[C@H](Cc2ccccc2)COc2cc3c(cc2C(=O)N[C@H](C(=O)NCCc2ccc4c(c2)OCO4)CC(=O)N1C)OCO3 [Example 154, (7R,13S,17S)-N-(2-(benzo[d][1,3]dioxol-5-yl)ethyl)-7-benzyl-13-isobutyl-14-methyl-9,12,15,19-tetraoxo-11-(2-(tetrahydro-2H-pyran-4-yl)ethyl)-6,7,8,9,10,11,12,13,14,15,16,17,18,19-tetradecahydro-[1,3]dioxolo[4′,5′:4,5]benzo[1,2-p][1]oxa[4,7,10,14]tetraazacycloheptadecine-17-carboxamide]			398 nM	102%	
COc1cccc(CCNC(=O)[C@@H]2CC(=O)N(C)[C@@H](CC(C)C)C(=O)N(C)[C@H](C)C(=O)N[C@H](Cc3ccccc3)COc3nc(C)nc(OC)c3C(=O)N2)c1 [Example 860, (7S,11S,14R,17R)-17-benzyl-11-isobutyl-4-methoxy-N-(3-methoxyphenethyl)-2,10,13,14-tetramethyl-5,9,12,15-tetraoxo-5,6,7,8,9,10,11,12,13,14,15,16,17,18-tetradecahydropyrimido[5,4-p][1]oxa[4,7,10,14]tetraazacycloheptadecine-7-carboxamide]					EC50 [3]: 578 nM; Emax [4]: 288%
COc1cccc(CCNC(=O)[C@@H]2CC(=O)N(C)[C@@H](CC(C)C)C(=O)N(CCC3CCCCC3)CC(=O)N[C@H](Cc3ccccc3)COc3ccc4nc(C)oc4c3C(=O)N2)c1 [Example 380, (8R,14S,18S)-8-benzyl-12-(2-cyclohexylethyl)-14-isobutyl-N-(3-methoxyphenethyl)-2,15-dimethyl-10,13,16,20-tetraoxo-7,8,9,10,11,12,13,14,15,16,17,18,19,20-tetradecahydrooxazolo[4′,5′:5,6]benzo[1,2-p][1]oxa[4,7,10,14]tetraazacycloheptadecine-18-carboxamide]			65 nM	325%	
CC(C)C[C@H]1C(=O)N2CCCC[C@@H]2C(=O)N[C@H](Cc2ccccc2)COc2cnc3ccccc3c2C(=O)N[C@H](C(=O)NCCc2c(F)cc(Br)cc2F)CC(=O)N1C [Example 99, (9S,13S,19aR,22R)-22-benzyl-N-(4-bromo-2,6-difluorophenethyl)-13-isobutyl-12-methyl-7,11,14,20-tetraoxo-7,8,9,10,11,12,13,14,17,18,19,19a,20,21,22,23-hexadecahydro-16H-pyrido[2′,11:6,7][1]oxa[4,7,10,14]tetraazacycloheptadecino[17,16-c]quinoline-9-carboxamide]			205 nM	254%	
COc1cc(CCNC(=O)[C@@H]2CC(=O)N(C)[C@@H](CC(C)C)C(=O)N3CCOC[C@@H]3C(=O)N[C@H](Cc3ccccc3)COc3cnc4ccccc4c3C(=O)N2)cc(OC)c1 [Example 57, (9S,13S,19aR,22R)-22-benzyl-N-(3,5-dimethoxyphenethyl)-13-isobutyl-12-methyl-7,11,14,20-tetraoxo-7,8,9,10,11,12,13,14,16,17,19,19a,20,21,22,23-hexadecahydro-[1,4]oxazino[3′,4′:6,7][1]oxa[4,7,10,14]tetraazacycloheptadecino[17,16-c]quinoline-9-carboxamide]			414 nM	315%	
COc1ccc(CCNC(=O)[C@@H]2CC(=O)N(C)[C@@H](CC(C)C)C(=O)N3CCOC[C@@H]3C(=O)N[C@H](Cc3ccccc3)COc3cnc4ccccc4c3C(=O)N2)c(F)c1 [Example 59, (9S,13S,19aR,22R)-22-benzyl-N-(2-fluoro-4-methoxyphenethyl)-13-isobutyl-12-methyl-7,11,14,20-tetraoxo-7,8,9,10,11,12,13,14,16,17,19,19a,20,21,22,23-hexadecahydro-[1,4]oxazino[3′,4′:6,7][1]oxa[4,7,10,14]tetraazacycloheptadecino[17,16-c]quinoline-9-carboxamide]			772 nM	237%	
COc1noc(CCNC(=O)[C@@H]2CC(=O)N(C)[C@@H](CC(C)C)C(=O)N(C)[C@H](Cc3nc(C(F)(F)F)no3)C(=O)N[C@H](Cc3ccccc3)COc3ccnc(OC)c3C(=O)N2)n1 [Example 949, (3R,6R,9S,13S)-3-benzyl-9-isobutyl-16-methoxy-N-(2-(3-methoxy-1,2,4-oxadiazol-5-yl)ethyl)-7,10-dimethyl-5,8,11,15-tetraoxo-6-((3-(trifluoromethyl)-1,2,4-oxadiazol-5-yl)methyl)-2,3,4,5,6,7,8,9,10,11,12,13,14,15-tetradecahydropyrido[3,4-p][1]oxa[4,7,10,14]tetraazacycloheptadecine-13-carboxamide]					EC50 [3]: 113 nM; Emax [4]: 518%

More lines, main results first:

EC50 [1]	Emax [2]	SMILES	EC50 [5]	Emax [6]	also measured
210 nM	365%	COc1cc(CCNC(=O)[C@@H]2CC(=O)N(C)[C@@H](CC(C)C)C(=O)N(C)[C@H](CC(F)F)C(=O)N[C@H](Cc3ccccc3)COc3cc(C)nc(OC)c3C(=O)N2)on1 [Example 785, (3R,6R,9S,13S)-3-benzyl-6-(2,2-difluoroethyl)-9-isobutyl-16-methoxy-N-(2-(3-methoxyisoxazol-5-yl)ethyl)-7,10,18-trimethyl-5,8,11,15-tetraoxo-2,3,4,5,6,7,8,9,10,11,12,13,14,15-tetradecahydropyrido[3,4-p][1]oxa[4,7,10,14]tetraazacycloheptadecine-13-carboxamide]			
53 nM	319%	Cc1cc(CCNC(=O)[C@@H]2CC(=O)N(C)[C@@H](CC(C)C)C(=O)N(C)[C@H](CCOCc3ccccc3)C(=O)N[C@H](Cc3ccccc3)COc3cnc4ccccc4c3C(=O)N2)on1 [Example 578, (3S,7S,10R,13R)-13-benzyl-10-(2-(benzyloxy)ethyl)-7-isobutyl-6,9-dimethyl-N-(2-(3-methylisoxazol-5-yl)ethyl)-1,5,8,11-tetraoxo-1,2,3,4,5,6,7,8,9,10,11,12,13,14-tetradecahydro-[1]oxa[4,7,10,14]tetraazacycloheptadecino[17,16-c]quinoline-3-carboxamide]			
299 nM	338%	Cc1cc(CCNC(=O)[C@@H]2CC(=O)N(C)[C@@H](CC(C)C)C(=O)N(C)[C@H](CC(F)F)C(=O)N[C@H](Cc3ccccc3)COc3cnc4ccccc4c3C(=O)N2)on1 [Example 699, (3S,7S,10R,13R)-13-benzyl-10-(2,2-difluoroethyl)-7-isobutyl-6,9-dimethyl-N-(2-(3-methylisoxazol-5-yl)ethyl)-1,5,8,11-tetraoxo-1,2,3,4,5,6,7,8,9,10,11,12,13,14-tetradecahydro-[1]oxa[4,7,10,14]tetraazacycloheptadecino[17,16-c]quinoline-3-carboxamide]			
